Results published in patent EP0168522A2, “Active agent-containing shaped article” (Akzo Patente GmbH, priority 1983, dated 1986).
In brackets after ≈: the same amount, converted by molar mass.

Experiment: Water solubility of the active agent
Assay type: physicochemical
Conditions: in water; read-out: Wasserlöslichkeit

| solubility [mg/mL] | SMILES |
| --- | --- |
| 14 (≈ 92.6 mM) | CC(=O)Nc1ccc(O)cc1 [Acetaminophen] |
| ~70 (≈ 636 mM) | Oc1ccc(O)cc1 [Hydrochinon] |
